Our source for the IC50 values is US20120264735A1 (priority 2009, published 2012).

T1 sequence (P08581 25-1390): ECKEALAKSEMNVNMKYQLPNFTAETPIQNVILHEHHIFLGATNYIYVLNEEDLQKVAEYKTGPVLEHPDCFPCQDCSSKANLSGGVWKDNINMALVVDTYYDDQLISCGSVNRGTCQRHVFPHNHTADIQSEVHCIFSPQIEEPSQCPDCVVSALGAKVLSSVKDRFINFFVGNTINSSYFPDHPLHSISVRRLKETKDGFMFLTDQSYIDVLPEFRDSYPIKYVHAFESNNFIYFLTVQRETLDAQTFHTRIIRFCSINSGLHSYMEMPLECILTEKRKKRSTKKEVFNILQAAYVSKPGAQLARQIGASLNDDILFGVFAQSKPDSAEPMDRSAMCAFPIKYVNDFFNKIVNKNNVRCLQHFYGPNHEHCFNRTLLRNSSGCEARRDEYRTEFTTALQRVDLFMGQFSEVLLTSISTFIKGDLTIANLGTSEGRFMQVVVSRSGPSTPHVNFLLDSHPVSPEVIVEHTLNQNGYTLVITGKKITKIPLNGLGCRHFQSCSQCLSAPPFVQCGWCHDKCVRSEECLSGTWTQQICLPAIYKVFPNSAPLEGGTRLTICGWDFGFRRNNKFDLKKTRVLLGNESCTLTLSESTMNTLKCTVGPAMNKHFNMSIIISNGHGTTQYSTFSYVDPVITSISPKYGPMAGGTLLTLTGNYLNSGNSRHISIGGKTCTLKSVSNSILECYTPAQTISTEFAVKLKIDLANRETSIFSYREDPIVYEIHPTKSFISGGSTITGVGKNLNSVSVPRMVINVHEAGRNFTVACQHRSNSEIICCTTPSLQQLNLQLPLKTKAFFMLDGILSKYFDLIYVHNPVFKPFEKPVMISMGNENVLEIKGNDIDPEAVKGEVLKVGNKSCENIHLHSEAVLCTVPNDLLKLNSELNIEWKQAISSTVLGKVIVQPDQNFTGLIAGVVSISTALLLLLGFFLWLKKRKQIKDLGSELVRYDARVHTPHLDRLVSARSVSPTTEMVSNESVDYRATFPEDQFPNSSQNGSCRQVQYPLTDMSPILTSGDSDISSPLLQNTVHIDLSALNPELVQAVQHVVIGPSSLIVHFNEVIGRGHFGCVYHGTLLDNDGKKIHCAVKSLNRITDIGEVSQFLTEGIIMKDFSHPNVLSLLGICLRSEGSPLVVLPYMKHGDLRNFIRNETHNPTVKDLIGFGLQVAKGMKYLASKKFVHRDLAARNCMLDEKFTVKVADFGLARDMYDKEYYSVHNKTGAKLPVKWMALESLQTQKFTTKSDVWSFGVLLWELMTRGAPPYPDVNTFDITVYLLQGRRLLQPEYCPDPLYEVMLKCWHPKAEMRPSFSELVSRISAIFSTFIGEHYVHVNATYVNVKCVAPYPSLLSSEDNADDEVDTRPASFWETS

This assay addresses T1, c-Met kinase (recombinant c-Met) (Homo sapiens, UniProt P08581).
T1 construct: 0.27 nM recombinant c-Met
Briefly: In vitro kinase assay I (homogeneous time-resolved fluorescence tyrosine kinase assay). In kind it is biochemical. How it is done:
The kinase activities of c-Met are measured using a modified version of the homogeneous-time-resolved tyrosine kinase assay described by Park et al. (1999, Anal. Biochem. 269:94-104).
The procedure for determining the potency of a compound to inhibit c-Met kinase comprises the following steps: • 1. Prepare 3-fold serial diluted compound solutions in 100% dimethyl sulfoxide (DMSO) at 20× of the desired final concentrations in a 384-well plate. • 2. Prepare a master reaction mix containing 6.67 mM MgCl2, 133.3 mM NaCl, 66.7 mM Tris-HCl (pH 7.4), 0.13 mg/ml BSA, 2.67 mM dithiothreitol, 0.27 nM recombinant c-Met and 666.7 nM biotinylated synthetic peptide substrate (biotin-ahx-EQEDEPEGDYFEWLE-CONH2) (SEQ.ID.NO.:1). • 3. In a black assay plate, add 1.5 μl of compound solution (or DMSO) and 22.5 μl of master reaction mix per well. Initiate the kinase reaction by adding 6 μl of 0.25 mM MgATP per well. Allow the reactions to proceed for 60 min at room temperature. The final conditions for the reaction are 0.2 nM c-Met, 0.5 μM substrate, 50 μM MgATP, 5 mM MgCl2, 100 mM NaCl, 2 mM DTT, 0.1 mg/ml BSA, 50 mM Tris (pH 7.4) and 5% DMSO. • 4. Stop the kinase reaction with 30 μl of Stop/Detection buffer containing 10 mM EDTA, 25 mM HEPES, 0.1% TRITON X-100, 0.750 nM Eu-chelate labeled anti-phosphotyrosine antibody PY20 (cat. #AD0067, PerkinElmer) and 50 μg/ml Streptavidin-allophycocyanin conjugate (cat. #PJ25S, Prozyme). • 5. Read HTRF signals on a Victor reader (PerkinElmer) in HTRF mode after 60-min incubation at room temperature in the dark. • 6. IC50 is determined by fitting the observed relationship between compound concentration and HTRF signal with a 4-parameter logistic equation. II. GTL-16 pY1349 Cell-Based Assay
As a reminder, the IC50 is the concentration needed to halve the response being measured. `CCOc1cnc2ccc(Cc3nn(-c4cnn(CC)c4)ccc3=O)cc2c1` [Example 160, 3-[(3-ethoxyquinolin-6-yl)methyl]-1-(1-ethyl-1H-pyrazol-4-yl)pyridazin-4(1H)-one]: the IC50 was in the range of 100 to 1000 nM.
On to `O=C(Nc1cccc(Cc2nn(-c3cc(F)cc(F)c3)ccc2=O)c1)OCC1CCOCC1` [Example 606, tetrahydro-2H-pyran-4-ylmethyl (3-{[1-(3,5-difluorophenyl)-4-oxo-1,4-dihydropyridazin-3-yl]methyl}phenyl)carbamate], for which the IC50 was < 100 nM.
As to `CC(C)(O)COc1cnc(-c2cccc(Cc3nn(-c4ccc(C#N)cc4)ccc3=O)c2)nc1` [Example 372, 4-[3-{3-[5-(2-hydroxy-2-methylpropoxy)pyrimidin-2-yl]benzyl}-4-oxopyridazin-1(4H)-yl]benzonitrile], the IC50 is < 100 nM.
As to `CCCOC(=O)Nc1cccc(Cc2nn(-c3cc(Cl)nc(Cl)c3)ccc2=O)c1` [Example 56, propyl (3-{[1-(2,6-dichloropyridin-4-yl)-4-oxo-1,4-dihydropyridazin-3-yl]methyl}phenyl)carbamate], the IC50 was < 100 nM.
Take `CCn1cc(-n2ccc(=O)c(C(C)c3cccc(-c4ncc(OC5CNC5)cn4)c3)n2)cn1` (single isomer, unassigned) [Example 340, 3-((1R or S)-1-{3-[5-(azetidin-3-yloxy)pyrimidin-2-yl]phenyl}ethyl)-1-(1-ethyl-1H-pyrazol-4-yl)pyridazin-4(1H)-one]: the IC50 was < 100 nM.
As for `CC(C)COC(=O)Nc1cccc(Cc2nn(-c3ccc(Br)cc3)ccc2=O)c1` [Example 68, 2-methylpropyl (3-{[1-(4-bromophenyl)-4-oxo-1,4-dihydropyridazin-3-yl]methyl}phenyl)carbamate], the IC50 was < 100 nM.
Turning to `CCOC(=O)Nc1cccc(Cc2nn(-c3ccc(Br)cc3)ccc2=O)c1` [Example 18, ethyl (3-{[1-(4-bromophenyl)-4-oxo-1,4-dihydropyridazin-3-yl]methyl}phenyl)carbamate], the IC50 is < 100 nM.
`CCOc1cnc(-c2cccc(Cc3nn(-c4ccc(C#N)c(F)c4)ccc3=O)c2)nc1` [Example 148, 4-{3-[3-(5-ethoxypyrimidin-2-yl)benzyl]-4-oxopyridazin-1(4H)-yl}-2-fluorobenzonitrile]: the IC50 is < 100 nM.
To `Cn1cc(-n2ccc(=O)c(Cc3cccc(NC(=O)OCCN4CCCC4=O)c3)n2)cn1` [Example 533, 2-(2-oxopyrrolidin-1-yl)ethyl (3-{[1-(1-methyl-1H-pyrazol-4-yl)-4-oxo-1,4-dihydropyridazin-3-yl]methyl}phenyl)carbamate] belongs < 100 nM; to `CCCOC(=O)Nc1cccc(Cc2nn(-c3ccc(Br)cc3)ccc2=O)c1` [Example 14, propyl (3-{[1-(4-bromophenyl)-4-oxo-1,4-dihydropyridazin-3-yl]methyl}phenyl)carbamate], < 100 nM; to `CCCn1cc(-n2ccc(=O)c(Cc3cccc(NC(=O)OCCN4CCOCC4)c3)n2)cn1` [Example 117, 2-morpholin-4-ylethyl (3-{[4-oxo-1-(1-propyl-1H-pyrazol-4-yl)-1,4-dihydropyridazin-3-yl]methyl}phenyl)carbamate], < 100 nM.
To `CCc1cnc(-c2cccc(C(C)c3nn(-c4ccc(F)c(F)c4)ccc3=O)c2)nc1` (single isomer, unassigned) [Example 230, 1-(3,4-difluorophenyl)-3-{(1S or R)-1-[3-(5-ethylpyrimidin-2-yl)phenyl]ethyl}pyridazin-4(1H)-one] belongs 100 to 1000 nM; to `CCOC(=O)Nc1cccc(Cc2nn(-c3cccc(Br)c3)ccc2=O)c1` [Example 13, ethyl (3-{[1-(3-bromophenyl)-4-oxo-1,4-dihydropyridazin-3-yl]methyl}phenyl)carbamate], < 100 nM.
For the compound `N#Cc1cccc(-n2ccc(=O)c(Cc3cccc(NC(=O)OCCN4CCS(=O)(=O)CC4)c3)n2)c1` [Example 596, 2-(1,1-dioxidothio-morpholin-4-yl)ethyl (3-{[1-(3-cyanophenyl)-4-oxo-1,4-dihydropyridazin-3-yl]methyl}phenyl)carbamate], the IC50 was < 100 nM.
On to `Cn1cc(-n2ccc(=O)c(Cc3cccc(-c4ncc(N5CCN(C(=O)OC(C)(C)C)CC5)cn4)c3)n2)cn1` [Example 471, tert-butyl 4-[2-(3-{[1-(1-methyl-1H-pyrazol-4-yl)-4-oxo-1,4-dihydro-pyridazin-3-yl]methyl}phenyl)pyrimidin-5-yl]piperazine-1-carboxylate], for which the IC50 was < 100 nM.
The value for `COCCCOc1cnc(-c2cccc(Cc3nn(-c4cc(F)c(F)c(F)c4)ccc3=O)c2)nc1` [Example 324, 3-{3-[5-(3-methoxypropoxy)pyrimidin-2-yl]benzyl}-1-(3,4,5-trifluorophenyl)pyridazin-4(1H)-one] was < 100 nM.
Regarding `CN1CCN(CCCNC(=O)c2cnc(-c3cccc(Cc4nn(-c5cnn(C)c5)ccc4=O)c3)nc2)CC1` [Example 479, N-[3-(4-methyl-piperazin-1-yl)propyl]-2-(3-{[1-(1-methyl-1H-pyrazol-4-yl)-4-oxo-1,4-dihydro-pyridazin-3-yl]methyl}phenyl)pyrimidine-5-carboxamide], the IC50 is < 100 nM.
`Cn1cc(-n2ccc(=O)c(Cc3cccc(-c4ncc(N5CCCCC5)cn4)c3)n2)cn1` [Example 441, 1-(1-methyl-1H-pyrazol-4-yl)-3-[3-(5-piperidin-1-ylpyrimidin-2-yl)benzyl]pyridazin-4(1H)-one]: the IC50 is < 100 nM.
Regarding `CCn1cc(-n2ccc(=O)c(C(C)c3cccc(-c4ncc(OCC5(F)CCN(C(=O)OC(C)(C)C)CC5)cn4)c3)n2)cn1` (single isomer, unassigned) [Example 290, tert-butyl 4-({[2-(3-{(1R or S)-1-[1-(1-ethyl-1H pyrazol-4-yl)-4-oxo-1,4-dihydropyridazin-3-yl]ethyl}phenyl)pyrimidin-5-yl]oxy}methyl)-4-fluoropiperidine-1-carboxylate], the IC50 is < 100 nM.
As to `Cn1cc(-n2ccc(=O)c(Cc3cccc(NC(=O)OCCN4CCNCC4)c3)n2)cn1` [Example 625, 2-piperazin-1-ylethyl (3-{[1-(1-methyl-1H-pyrazol-4-yl)-4-oxo-1,4-dihydropyridazin-3-yl]methyl}phenyl)carbmate], the IC50 is < 100 nM.
As to `Cn1cc(-n2ccc(=O)c(Cc3cccc(-c4ncc(CN5CCSCC5)cn4)c3)n2)cn1` [Example 428, 1-(1-methyl-1H-pyrazol-4-yl)-3-{3-[5-(thiomorpholin-4-ylmethyl)pyrimidin-2-yl]benzyl}pyridazin-4(1H)-one], the IC50 is < 100 nM.
With `O=c1ccn(-c2ccc(F)c(F)c2)nc1Cc1cccc(-c2ncc(OCC3CCOC3)cn2)c1` (single isomer, unassigned) [Example 351, 1-(3,4-difluorophenyl)-3-(3-{5-[(3R or S)-tetrahydrofuran-3-ylmethoxy]pyrimidin-2-yl}benzyl)pyridazin-4(1H)-one], the half-inhibitory concentration (IC50) is < 100 nM.
Consider `CC(c1cccc(-c2ncc(O[C@@H]3CCNC[C@H]3F)cn2)c1)c1nn(-c2cnn(C)c2)ccc1=O` (single isomer, unassigned) [Example 343, 3-{(1R or S)-1-[3-(5-{[(3R or S, 4R or S)-3-fluoropiperidin-4-yl]oxy}pyrimidin-2-yl)phenyl]ethyl}-1-(1-methyl-1H-pyrazol-4-yl)pyridazin-4(1H)-one], for which the IC50 lay in the range of 100 to 1000 nM.
For the compound `CCNC(=O)Nc1cccc(Cc2nn(-c3cnn(C)c3)ccc2=O)c1` [Example 488, 1-ethyl-3-(3-{[1-(1-methyl-1H-pyrazol-4-yl)-4-oxo-1,4-dihydropyridazin-3-yl]methyl}phenyl)urea], the IC50 was < 100 nM.
For `Cn1cc(-n2ccc(=O)c(Cc3cccc(-c4cnccn4)c3)n2)cn1` [Example 38, 1-(1-methyl-1H-pyrazol-4-yl)-3-[3-(pyrazin-2-yl)benzyl]pyridazin-4(1H)-one], the IC50 lay in the range of 1000 to 3000 nM.
The value for `CC(C)COC(=O)Nc1cccc(Cc2nn(-c3cccc(Br)c3)ccc2=O)c1` [Example 69, 2-methylpropyl (3-{[1-(3-bromophenyl)-4-oxo-1,4-dihydropyridazin-3-yl]methyl}phenyl)carbamate] was < 100 nM.
As for `Cn1cc(-n2ccc(=O)c(Cc3cccc(-c4ncc(-c5ccc(F)cn5)cn4)c3)n2)cn1` [Example 418, 3-{3-[5-(5-fluoropyridin-2-yl)pyrimidin-2-yl]benzyl}-1-(1-methyl-1H-pyrazol-4-yl)pyridazin-4(1H)-one], the IC50 was < 100 nM.
With `Cn1cc(-n2ccc(=O)c(Cc3cccc(-c4ncc(O)cn4)c3)n2)cn1` [Example 187, 3-[3-(5-Hydroxypyrimidin-2-yl)benzyl]-1-(1-methyl-1H-pyrazol-4-yl)pyridazin-4(1H)-one], the IC50 is 100 to 1000 nM.
